By melting point is commonly meant the temperature of the solid-liquid transition.

One data set relates to Ps. aeruginosa. Put plainly: antimicrobial activity, agar dilution method. It counts as cell-based. Particulars: after 10, 20, 40 and 60 min at all dilutions 1:100, 1:200, 1:400, 1:800. As to the method: (§1) The antibacterial properties of the synthesized compounds were studied by the method of agar dilution. Test solutions of each compound was prepared in a concentration of 1% using dimethylformamide as a solvent. Then the test solutions were diluted in a physiological solution to obtain the final experimental dilutions of 1:100, 1:200, 1:400, and 1:800. The effect of these substances was compared with furacillin in a controllable study. The testing microbes used were gram positive bacteria St. Aereus, gram negative bacteria E. Coli, and Ps. aeruginosa and Candida albicans fungi. The experiments used for this survey were a meat-pentonlu agar (EPA) for cultivation of bacteria and a Saburo environment for fungi. Each experiment used 1 mL of test solution on each plate for 500 min. Next, 2 drops of emulsified test solution with microbes feel were added. All experimental samples were taken from the agar after 10, 20, 40, 60 minutes in the environment on the basis of Patrk planted. Bacteria were cultivated at a temperature of 37° ° C. for 1 day and the mushroom was kept in a thermostat for […] at a temperature of 28° C. Then results were checked. Results for the control and the antimicrobial activity for the synthesized compounds are listed in Table 1 below. […]
(Agar dilution tests growth on a series of plates holding different concentrations.)

For the next data set, the system named is Candida albicans. Put plainly: antimicrobial activity, agar dilution method. In kind it is cell-based. Conditions: after 10, 20, 40 and 60 min at all dilutions 1:100, 1:200, 1:400, 1:800. As to the method: as §1
In another data set the test system is St. Aereus. Put plainly: antimicrobial activity, agar dilution method. In kind it is cell-based. Particulars: after 10, 20, 40 and 60 min at all dilutions 1:100, 1:200, 1:400, 1:800. As to the method: as §1
Another data set has as its system E. Coli. Put plainly: antimicrobial activity, agar dilution method. In kind it is cell-based. Conditions: after 10, 20, 40 and 60 min at all dilutions 1:100, 1:200, 1:400, 1:800. The protocol: as §1

Each structure is given as a SMILES string.

`CCCCn1c(-c2csc3ccccc23)nc(-c2ccccc2)c1-c1ccccc1` [2-(Benzo[b]thiophen-3-yl)-1-butyl-4,5-diphenyl-1H-imidazole] displayed a melting point of 151 to 153 °C. Moreover, the inhibition activity entry with Ps. aeruginosa is on record as “most inhibition activity”. Further, in the data set with Candida albicans, the inhibition activity entry is “most inhibition activity”. The inhibition activity entry with St. Aereus is “most inhibition activity”. Further, the inhibition activity entry in the data set with E. Coli was “most inhibition activity”.
Consider `CN(C)CCCn1c(-c2cccnc2)nc(-c2ccccc2)c1-c1ccccc1` [3-(4,5-Diphenyl-2-(pyridin-3-yl)-1H-imidazol-1-yl)-N,N-dimethylpropan-1-amine], for which the inhibition activity entry with Ps. aeruginosa, with Candida albicans, in the data set with St. Aereus and in the data set with E. Coli was “highest inhibition activity” each time.

(Values after patent publication US11999712B1, “2-(benzo[b]thiophen-3-yl)-1-butyl-4,5-diphenyl-1H-imidazole as an anti-inflammatory and anti-microbial compound” (KING FAISAL UNIVERSITY, priority 2023, dated 2024).)
